# Values of other authors as cited in patent publication US6306435A, “Oral pharmaceutical preparation embedded in an oily matrix and methods of making the same” (Yung Shin Pharmaceutical Industrial Co. Ltd., priority 2000, dated 2001).
# Like-named read-outs stand apart in the source and are kept apart here.
# Assays:
# [1] = not given; remark: listed apart in the source
structure (smiles),measurement,setting,value
COc1ccc2[nH]c([S+]([O-])Cc3ncc(C)c(OC)c3C)nc2c1 (centres unmarked) [Omeprazole],degradation before reaching the small intestine,conventional oral dosage form,more than half
same,"effect of moisture, organic solvents and acidic substances on stability","moisture, organic solvents and acidic substances",deleterious effect
same,half-life of degradation,pH 6.5,18 h
same,half-life of degradation,pH 11,about 300 days
same,half-life of degradation,"water solutions, pH-values below 4",less than 10 minutes
same,solubility in alkaline solutions,"[1]; alkaline solutions, as negatively charged ion",very soluble
same,pKa (pyridinium),[1]; pyridinium,~ 4
same,solubility in water,[1]; water,very slightly soluble
